Measured values as given in publication PMC5949348, “The Metabolism of Separase Inhibitor Sepin-1 in Human, Mouse, and Rat Liver Microsomes” (Frontiers in Pharmacology, 2018).
“And” between values parts separate entries of the source, which are not always exact repeats. Equal values may be shown once.

Columns and labels:
CYP2C8 = biological target: T1, CYP2C8 (Homo sapiens, UniProt P10632); assay: Inhibition of sepin-1 on CYP2C8; format: in vitro ADME
T1 construct: purchased XenoTech
T1 sequence (P10632 1-490): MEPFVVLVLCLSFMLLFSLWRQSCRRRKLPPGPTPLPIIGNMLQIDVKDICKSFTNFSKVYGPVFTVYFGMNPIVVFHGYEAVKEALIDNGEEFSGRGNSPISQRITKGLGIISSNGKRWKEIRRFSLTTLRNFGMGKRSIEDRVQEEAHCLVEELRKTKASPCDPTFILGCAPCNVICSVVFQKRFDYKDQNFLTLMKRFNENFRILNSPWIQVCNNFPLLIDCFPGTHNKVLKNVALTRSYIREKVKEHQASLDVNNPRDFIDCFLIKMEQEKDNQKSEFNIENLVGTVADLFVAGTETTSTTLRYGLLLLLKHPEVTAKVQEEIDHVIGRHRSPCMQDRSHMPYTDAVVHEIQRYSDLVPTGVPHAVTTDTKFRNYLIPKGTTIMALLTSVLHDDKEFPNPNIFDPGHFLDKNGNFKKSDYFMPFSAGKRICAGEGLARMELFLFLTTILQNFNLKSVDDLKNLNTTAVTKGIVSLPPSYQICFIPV
Experimental: Incubations were performed in 1× PBS (pH 7.4), containing 0, 0.156, 0.312, 0.625, 1.25, 2.5, 5, 10, 20, or 40 μM sepin-1, 2 pmol of each cDNA-expressed P450 enzymes, and corresponding substrates: CYP1A2 (phenacetin, 40 μM, 20 min incubation), 2B6 (efavirenz, 20 μM, 30 min), 2C8 (paclitaxel, 10 μM, 30 min), 2C9 (diclofenac, 5 μM, 15 min), 2C19 [(S)-mephenytoin, 40 μM, 20 min], 2D6 (dextromethorphan, 5 μM, 15 min), and CYP3A4 (midazolam, 3 μM, 10 min) in a final volume of 190 μl. After 5 min of pre-incubation at 37°C, the reaction was initiated by adding 10 μl of 20 mM NADPH (final concentration 1.0 mM) and continued for a specific time as presented above with gentle shaking. Incubations without sepin-1 were used as controls. Reactions were terminated by the addition of 200 μl of ice-cold methanol, vortexing for 30 s, and centrifuging at 15,000 × g for 15 min. Each supernatant was transferred to an auto sampler vial and 5.0 μl was injected on to UHPLC coupled with a QQQMS system for the specific metabolite analysis. A MRM method was used. Incubations were conducted in duplicate. Positive controls were performed by using a known specific inhibitor for each of the isoform assays (Supplementary Table S1). […]

[1] = Metabolism of sepin-1 in human liver microsomes; format: in vitro ADME; details: 30 μM sepin-1, NADPH 1.0 mM, 30 min
Experimental: Incubations were conducted in 1× phosphate-buffered saline (1× PBS, pH 7.4), containing 30 μM sepin-1, 1.0 mg HLM, MLM, RLM, or 2 pmol of each cDNA-expressed P450 enzyme (control, CYP1A2, 2A6, 2B6, 2C8, 2C9, 2C19, 2D6, 2E1, and CYP3A4) in a final volume of 190 μl. After 5 min of pre-incubation at 37°C, the reaction was initiated by adding 10 μl of 20 mM NADPH (final concentration 1.0 mM) and continued for 30 min, with shaking at 37°C. Incubations lacking NADPH served as controls. Reactions were terminated with 200 μl of ice-cold methanol, followed by vortexing for 30 s and centrifuging at 15,000 × g for 15 min. Each supernatant was transferred to an auto sampler vial, and 5.0 μl was injected on to UHPLC coupled with a QTOFMS system for metabolite analysis. Incubations were conducted in quadruplicate for HLM, in triplicate for MLM and RLM, and in duplicate for cDNA-expressed P450 enzymes.
The separation of sepin-1 and its metabolites was achieved using a 1260 Infinity Binary LC System (Agilent Technologies, Santa Clara, CA, United States) equipped with 100 mm × 2.1 mm (Agilent XDB C18) column. The column temperature was maintained at 40°C. The flow rate was 0.3 ml/min, with a gradient ranging from 2% to 98% aqueous acetonitrile containing 0.1% formic acid in a 15-min run. QTOFMS was operated in a positive mode with electrospray ionization. Ultra-high pure nitrogen was applied as the drying gas (12 l/min) and the collision gas. The drying gas temperature was set at 325°C, and the nebulizer pressure was kept at 35 psi. The capillary voltages were set at 3.5 kV. […]
Mass chromatograms and mass spectra were acquired by MassHunter Workstation Data Acquisition Software (Agilent, Santa Clara, CA, United States) in centroid and profile formats from m/z 100 to 1000. […] For the QQQMS data, QQQ Quantitative Analysis Software (Agilent, Santa Clara, CA, United States) was used for metabolite analysis. […] Statistical differences between two groups were determined by Student’s t-test.

- Inhibition potency class on CYP2C8 (CYP2C8; FDA classification bands): weak inhibition
- IC50 (CYP2C8; substrate paclitaxel 10 μM, 30 min, metabolite 6-O-paclitaxel, co-incubation): > 10 µM and 17.8 µM
- Metabolism of parent in HLM (in words) [1]: metabolized rapidly
SMILES: CC1(C)[N+]([O-])=c2ccc([N+](=O)[O-])cc2=[N+]1[O-] [Sepin-1, 2,2-dimethyl-5-nitro-2H-benzimidazole-1,3-dioxide]
